Where two headings read alike, the source gives them in different places.
Tests used:
Type in all cases: biochemical
Cdc25C = biological target: T1, Cdc25C (Homo sapiens, UniProt P30307); assay: Cdc25C phosphatase inhibition screen at 50 μM; conditions: read-out: Percent Inhibition at 50 uM compound, Cdc25 C
T1 sequence (P30307 1-473): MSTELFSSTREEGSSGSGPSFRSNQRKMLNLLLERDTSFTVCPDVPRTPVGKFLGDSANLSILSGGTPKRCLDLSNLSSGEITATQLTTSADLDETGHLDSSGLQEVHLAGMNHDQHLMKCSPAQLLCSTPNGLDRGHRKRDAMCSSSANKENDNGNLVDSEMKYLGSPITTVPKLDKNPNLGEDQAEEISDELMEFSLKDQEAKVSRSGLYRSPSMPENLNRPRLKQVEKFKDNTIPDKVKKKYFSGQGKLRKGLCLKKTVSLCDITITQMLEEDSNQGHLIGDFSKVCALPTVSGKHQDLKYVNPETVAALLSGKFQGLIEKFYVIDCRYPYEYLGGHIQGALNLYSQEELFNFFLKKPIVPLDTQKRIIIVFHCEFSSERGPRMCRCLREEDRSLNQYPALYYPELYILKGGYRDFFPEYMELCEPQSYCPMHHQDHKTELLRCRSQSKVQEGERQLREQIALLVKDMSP
Protocol: (§1) Using procedures known to those skilled in the art, the compounds listed in Table 3 were screened against Cdc25A, Cdc25B, and Cdc25C at 50 μM. […] To analyze these effects further, the compounds were then screened against Cdc25B in a 3 pt. IC-50, using 1, 7 and 50 μM. Several of the compounds were also screened with an 8 pt. IC-50 process, using 0.1–10 μM, allowing determination of Hill slopes.

Cdc25B = biological target: T2, Cdc25B (Homo sapiens, UniProt P30305); assay: Cdc25B phosphatase inhibition (50 μM screen, 3 pt. and 8 pt. IC-50); conditions: for IC50: Cdc25B; for inhibition at 50 µM: read-out: Percent Inhibition at 50 uM compound, Cdc25 B
T2 sequence (P30305 1-580): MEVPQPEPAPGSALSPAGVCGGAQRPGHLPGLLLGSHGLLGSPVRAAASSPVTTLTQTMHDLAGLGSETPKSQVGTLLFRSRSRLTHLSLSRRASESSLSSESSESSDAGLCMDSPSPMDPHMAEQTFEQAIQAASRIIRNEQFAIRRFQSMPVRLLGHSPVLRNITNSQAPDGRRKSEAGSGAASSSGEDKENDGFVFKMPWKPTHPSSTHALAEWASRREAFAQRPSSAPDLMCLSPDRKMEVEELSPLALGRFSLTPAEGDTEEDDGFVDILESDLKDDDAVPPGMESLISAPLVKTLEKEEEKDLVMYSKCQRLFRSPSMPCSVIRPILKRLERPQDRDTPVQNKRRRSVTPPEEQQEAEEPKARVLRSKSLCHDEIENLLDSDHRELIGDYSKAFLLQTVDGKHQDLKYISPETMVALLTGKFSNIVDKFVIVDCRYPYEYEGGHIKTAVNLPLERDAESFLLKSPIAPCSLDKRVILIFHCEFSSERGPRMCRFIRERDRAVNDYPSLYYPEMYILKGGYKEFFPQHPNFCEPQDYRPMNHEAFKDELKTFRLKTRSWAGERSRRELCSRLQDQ
Protocol: as §1

Cdc25A = biological target: T3, Cdc25A (Homo sapiens, UniProt P30304); assay: Cdc25A phosphatase inhibition screen at 50 μM; conditions: read-out: Percent Inhibition at 50 uM compound, Cdc25 A
T3 sequence (P30304 1-524): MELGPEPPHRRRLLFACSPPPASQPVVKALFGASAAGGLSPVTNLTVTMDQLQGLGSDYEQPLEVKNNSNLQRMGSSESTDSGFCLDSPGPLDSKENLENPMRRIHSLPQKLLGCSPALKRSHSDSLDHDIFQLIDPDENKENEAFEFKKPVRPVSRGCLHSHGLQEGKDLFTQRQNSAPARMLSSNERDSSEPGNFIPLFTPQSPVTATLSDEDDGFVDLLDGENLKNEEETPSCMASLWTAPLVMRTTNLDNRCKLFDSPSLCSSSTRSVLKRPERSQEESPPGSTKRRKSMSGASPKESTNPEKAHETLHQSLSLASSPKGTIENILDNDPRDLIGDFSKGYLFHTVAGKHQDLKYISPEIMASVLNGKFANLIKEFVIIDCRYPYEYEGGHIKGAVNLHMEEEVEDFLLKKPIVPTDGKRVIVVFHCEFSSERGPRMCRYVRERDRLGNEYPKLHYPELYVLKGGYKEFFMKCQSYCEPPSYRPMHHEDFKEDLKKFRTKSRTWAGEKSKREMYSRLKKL
Protocol: as §1

[1] = 3 pt. IC-50 using 1, 7 and 50 μM, read-out: IC50 (3 pt)
[2] = 8 pt. IC-50 using 0.1–10 μM, read-out: IC50 (8 pt)

Compound | inhibition at 50 µM (Cdc25C) [%] | IC50 (Cdc25B; [1]) [µM] | IC50 (Cdc25B; [2]) [µM] | inhibition at 50 µM (Cdc25B) [%] | inhibition at 50 µM (Cdc25A) [%]
O=C1C=C(O)C(=O)C(c2c[nH]c3cc(F)ccc23)=C1O [5A, 2,5-dihydroxy-3-(6-fluoro-1H-indol-3-yl)-[1,4]-benzoquinone] | 90 | 2 | 6.8 | 48 | 91
O=C1C=C(O)C(=O)C(c2c[nH]c3cc(Cl)ccc23)=C1O [5B, 2,5-dihydroxy-3-(6-chloro-1H-indol-3-yl)-[1,4]-benzoquinone] | 81 | 2.4 |  | 92 | 99
O=C1C=C(O)C(=O)C(c2c[nH]c3cc(OCc4ccccc4)ccc23)=C1O [5C, 2,5-dihydroxy-3-(6-benzyloxy-1H-indol-3-yl)-[1,4]-benzoquinone] | 92 | 1.7 |  | 97 | 89
Cc1ccc2c(C3=C(O)C(=O)C=C(O)C3=O)c[nH]c2c1 [5D, 2,5-dihydroxy-3-(6-methyl-1H-indol-3-yl)-[1,4]-benzoquinone] | 28 | 32.3 |  | 16 | 80
COC1=CC(=O)C(OC)=C(c2c[nH]c3c(F)cccc23)C1=O [5E, 2,5-dimethoxy-3-(7-fluoro-1H-indol-3-yl)-[1,4]-benzoquinone] | 68 | 125 |  | 67 | 29
O=C1C=C(O)C(=O)C(c2c[nH]c3c(Cl)cccc23)=C1O [5F, 2,5-dihydroxy-3-(7-chloro-1H-indol-3-yl)-[1,4]-benzoquinone] | 54 | 38 |  | 23 | 92
O=C1C=C(O)C(=O)C(c2c[nH]c3c(Br)cccc23)=C1O [5G, 2,5-dihydroxy-3-(7-bromo-1H-indol-3-yl)-[1,4]-benzoquinone] | 88 | 2.1 |  | 45 | 93
Cc1cccc2c(C3=C(O)C(=O)C=C(O)C3=O)c[nH]c12 [5H, 2,5-dihydroxy-3-(7-methyl-1H-indol-3-yl)-[1,4]-benzoquinone] | 1 | 4.2 |  | 0 | 60
CCCc1cccc2c(C3=C(O)C(=O)C=C(O)C3=O)c[nH]c12 [6A, 2,5-dihydroxy-3-(7-propyl-1H-indol-3-yl)-[1,4]-benzoquinone] | 79 | 14.1 |  | 23 | 93
CC(C)=CCc1cccc2c(C3=C(O)C(=O)C=C(O)C3=O)c[nH]c12 [6B, 2,5-dihydroxy-3-(7-prenyl-1H-indol-3-yl)-[1,4]-benzoquinone] | 84 | 2.1 |  | 99 | 100
CC(C)=CCC/C(C)=C/Cc1cccc2c(C3=C(O)C(=O)C=C(O)C3=O)c[nH]c12 [6C, 2,5-dihydroxy-3-(7-geranyl-1H-indol-3-yl)-[1,4]-benzoquinone] | 96 | 0.1 | 0.5 | 95 | 99
CC(C)=CCCC(C)=CCCC(C)=CCc1cccc2c(C3=C(O)C(=O)C=C(O)C3=O)c[nH]c12 [6D, 2,5-dihydroxy-3-(7-farnecyl-1H-indol-3-yl)-[1,4]-benzoquinone] | 85 | 0.1 | 0.5 | 89 | 86
O=C1C=C(O)C(=O)C(c2c[nH]c3c(Cc4ccccc4)cccc23)=C1O [6E, 2,5-dihydroxy-3-(7-benzyl-1H-indol-3-yl)-[1,4]-benzoquinone] | 98 | 1.7 |  | 97 | 98
Cc1ccccc1Cc1cccc2c(C3=C(O)C(=O)C=C(O)C3=O)c[nH]c12 [6F, 2,5-dihydroxy-3-[7-(2-methyl-benzyl)-1H-indol-3-yl]-[1,4]-benzoquinone] | 94 | 0.6 | 1.1 | 97 | 90
CC(C)(C)c1cccc2c(C3=C(O)C(=O)C=C(O)C3=O)c[nH]c12 [6G, 2,5-dihydroxy-3-(7-tert-butyl-1H-indol-3-yl)-[1,4]-benzoquinone] | 37 | 2.1 |  | 33 | 96
O=C1C=C(O)C(=O)C(c2c[nH]c3c(-c4ccccc4)cccc23)=C1O [6H, 2,5-dihydroxy-3-(7-phenyl-1H-indol-3-yl)-[1,4]-benzoquinone] | 91 | 1.4 |  | 92 | 98
COc1cccc2c(C3=C(O)C(=O)C=C(O)C3=O)c[nH]c12 [7A, 2,5-dihydroxy-3-(7-methoxy-1H-indol-3-yl)-[1,4]-benzoquinone] | 13 | 79.5 |  | 15 | 36
O=C1C=C(O)C(=O)C(c2c[nH]c3c(OCc4ccccc4)cccc23)=C1O [7B, 2,5-dihydroxy-3-(7-benzyloxy-1H-indol-3-yl)-[1,4]-benzoquinone] | 85 | 1.6 |  | 97 | 98
Cc1ccc2[nH]c(C)c(C3=C(O)C(=O)C=C(O)C3=O)c2c1 [7C, 2,5-dihydroxy-3-(2,5-dimethyl-1H-indol-3-yl)-[1,4]-benzoquinone] | 25 | 16.5 |  | 20 | 61
COc1ccc2[nH]c(C)c(C3=C(O)C(=O)C=C(O)C3=O)c2c1 [7D, 2,5-dihydroxy-3-(2-methyl-5-methoxy-1H-indol-3-yl)-[1,4]-benzoquinone] | 31 | 126 |  | 0 | 0
Cc1[nH]c2ccc(Cl)cc2c1C1=C(O)C(=O)C=C(O)C1=O [7E, 2,5-dihydroxy-3-(2-methyl-5-chloro-1H-indol-3-yl)-[1,4]-benzoquinone] | 81 | 52.2 |  | 60 | 91
Cc1ccc2c(C3=C(O)C(=O)C=C(O)C3=O)c(C)[nH]c2c1 [7F, 2,5-dihydroxy-3-(2,6-dimethyl-1H-indol-3-yl)-[1,4]-benzoquinone] | 0 | 207 |  | 16 | 46
Cc1[nH]c2c(C)cccc2c1C1=C(O)C(=O)C=C(O)C1=O [7G, 2,5-dihydroxy-3-(2,7-dimethyl-1H-indol-3-yl)-[1,4]-benzoquinone] | 0 | 38.5 |  | 0 | 20
O=C1C=C(O)C(=O)C(c2c[nH]c3cc4c(cc23)OCO4)=C1O [7H, 2,5-dihydroxy-3-(5,6-methylenedioxy-1H-indol-3-yl)-[1,4]-benzoquinone] | 63 | 3.7 |  | 88 | 96
